pIC50: −log10 of the molar value.
Tests used:
[1] = CDK2/CycE Kinase Assay: Method 2: Recombinant fusion proteins of GST and human CDK2 and of GST and human CycE, expressed in insect cells (Sf9) and purified by Glutathion-Sepharose affinity chromatography, were purchased from ProQinase GmbH (Freiburg, Germany). As substrate for the kinase reaction biotinylated peptide biotin-Ttds-[…] (C-terminus in amid form) was used which can be purchased e.g. form the company JERINI Peptide Technologies (Berlin, Germany).For the assay 50 nl of a 100 fold concentrated solution of the test compound in DMSO was pipetted into a black low volume 384 well microtiter plate (Greiner Bio-One, Frickenhausen, Germany), 2 ul of a solution of CDK2/CycE in aqueous assay buffer [50 mM Tris/HCl pH 8.0, 10 mM MgCl2, 1.0 mM dithiothreitol, 0.1 mM sodium ortho-vanadate, 0.01% (v/v) Nonidet-P40 (Sigma)] were added and the mixture was incubated for 15 min at 22° C. to allow pre-binding of the test compounds to the enzyme before the start of the kinase reaction. […] The concentration of CDK2/CycE was adjusted depending of the activity of the enzyme lot and was chosen appropriate to have the assay in the linear range, typical concentrations were in the range of 130 ng/ml. […]
[2] = CDK9/CycT1 Kinase Assay: Method 1a: Recombinant full-length His-tagged human CDK9 and CycT1, expressed in insect cells and purified by Ni-NTA affinity chromatography, were purchased from Invitrogen (Cat. No PV4131). As substrate for the kinase reaction biotinylated peptide biotin-Ttds-[…] (C-terminus in amid form) was used which can be purchased e.g. form the company JERINI Peptide Technologies (Berlin, Germany).For the assay 50 nl of a 100 fold concentrated solution of the test compound in DMSO was pipetted into a black low volume 384 well microtiter plate (Greiner Bio-One, Frickenhausen, Germany), 2 ul of a solution of CDK9/CycT1 in aqueous assay buffer [50 mM Tris/HCl pH 8.0, 10 mM MgCl2, 1.0 mM dithiothreitol, 0.1 mM sodium ortho-vanadate, 0.01% (v/v) Nonidet-P40 (Sigma)] were added and the mixture was incubated for 15 min at 22° C. to allow pre-binding of the test compounds to the enzyme before the start of the kinase reaction. […] The concentration of CDK9/CycT1 was adjusted depending of the activity of the enzyme lot and was chosen appropriate to have the assay in the linear range, typical concentrations were in the range of 1 ug/ml. […]
[3] = CDK9/CycT1 High ATP Kinase Assay: Method 1b: Recombinant full-length His-tagged human CDK9 and CycT1, expressed in insect cells and purified by Ni-NTA affinity chromatography, were purchase from Invitrogen (Cat. No PV4131). As substrate for the kinase reaction biotinylated peptide biotin-Ttds-[…] (C-terminus in amid form) was used which can be purchased e.g. form the company JERINI peptide technologies (Berlin, Germany).For the assay 50 nl of a 100 fold concentrated solution of the test compound in DMSO was pipetted into a black low volume 384 well microtiter plate (Greiner Bio-One, Frickenhausen, Germany), 2 ul of a solution of CDK9/CycT1 in aqueous assay buffer [50 mM Tris/HCl pH 8.0, 10 mM MgCl2, 1.0 mM dithiothreitol, 0.1 mM sodium ortho-vanadate, 0.01% (v/v) Nonidet-P40 (Sigma)] were added and the mixture was incubated for 15 min at 22° C. to allow pre-binding of the test compounds to the enzyme before the start of the kinase reaction. […] The concentration of CDK9/CycT1 was adjusted depending of the activity of the enzyme lot and was chosen appropriate to have the assay in the linear range, typical concentrations were in the range of 0.5 ug/ml. […]

SMILES	pIC50 [1]	pIC50 [2]	pIC50 [3]
C[S@@](=N)(=O)Cc1cc(Nc2ncc(F)c(-c3ccc(F)cc3F)n2)cc(C(F)(F)F)c1	6.11	7.96	6.63
C[S@](=N)(=O)Cc1cc(Nc2ncc(F)c(-c3ccc(F)cc3F)n2)cc(C(F)(F)F)c1	6.20	7.89	6.64

From ChEMBL document CHEMBL5725264, “4-(ortho)-fluorophenyl-5-fluoropyrimidin-2-yl amines containing a sulfoximine group” (2016)
